Test results published in patent US20100273656A1, “COMPOSITION AND METHOD FOR SELECTIVE HERBICIDE” (priority 2002, published 2010).

How the values were obtained:
dandelions [1] = assay: Example 16 metal salts of EDTA, greenhouse dandelion mortality; type: in vivo, Taraxacum officinale; conditions: for Dead Dandelion (#/20): pH 7
Procedure: This test investigated various metal chelates. All chelate solutions contained 0.4% metal ions with 10% excess chelator, and were adjusted to pH 7. For the combinations, these 4 solutions were mixed together in a 1:1 ratio. The solutions were sprayed onto greenhouse grown dandelions at a rate of 100 ml/m^2. The test was re-sprayed after 7 days.

perennial ryegrass [2] = assay: Example 23 Cu-, Mn- or ZnHEDTA with Killex, perennial ryegrass; type: in vivo
Procedure: (§1) Plants were fertilized with an all purpose water-soluble fertilizer mix of 20-20-20 (N-P-K; Plant-Prod®) as needed. All broadleaf weeds were grown individually in a 2¼-inch pot until they were a suitable size for herbicide tests (actual weed size is reported in examples below). Perennial ryegrass was also grown in 2¼-inch pots, however many grass seeds were sown in the pot to simulate a small section of turf. Grass plants were continually trimmed to a height of 4 cm, simulating that of a homeowner's lawn. For field tests, plots ¼ m^2 in size were marked out in areas containing the targeted broadleaf weed species growing in turf grass. Plots were continually mowed to simulate a homeowner's lawn. […] In all of the examples, the amounts of the various herbicide components are identified as a percent on a weight basis.
(§2) Killex® (Scotts Canada, Ltd., Ontario, Canada) is a commonly used selective lawn herbicide and was used as the commercial herbicide for herbicide combinations. The labeled dilution and application rates for Killex® are 6 ml into 1 L of solution (0.6%) applied at 200 ml/m^2.
(§3) All visual plant damage assessments were made using a quantitative rating scale; percent control relative to the untreated check (0=no effect; 100=plant death).
(§4) Materials and Methods: This trial was conducted in the greenhouse. Ten white clover plants and 10 pots of perennial ryegrass were selected for each treatment. Herbicide solutions were prepared using deionized water. The treatments were applied using a hand-trigger sprayer at 200 ml/m^2. All treatments were applied once. Phytotoxicity (%) was assessed 4 and 7 days after treatment (A4 and A7).

white clover [3] = assay: Example 23 Cu-, Mn- or ZnHEDTA with Killex, white clover; type: in vivo
Procedure: as §1, §2, §3, §4

perennial ryegrass [4] = assay: Example 17 iron chelates with Killex, perennial ryegrass; type: in vivo
Procedure: as §1, §2, §3
(§5) Materials and Methods: This trial was conducted in the greenhouse. Nine pots of white clover and 10 pots of perennial ryegrass were selected for each treatment. Herbicidal solutions were prepared using deionized water. The treatments were applied using a handheld trigger sprayer at 200 ml/m^2. All treatments were applied once. Phytotoxicity (%) was assessed 4, 7, and 14 days after application (A4, A7, and A14).

dandelion [5] = assay: Example 21 Fe chelates with Killex, dandelion; type: in vivo, Taraxacum officinale; conditions: A29 = 29 days after treatment
Procedure: as §1, §2, §3
(§6) Materials and Methods: This trial was conducted in the greenhouse. […] Phytotoxicity (%) was assessed 29 days after treatment (A29).

dandelion [6] = assay: Example 14 field dandelion test of iron chelates and 50:50 mixtures; type: in vivo, Taraxacum officinale; design: Surviving Dandelions (%): concentration or dose not given beside the values
Description: Solutions were made of FeHEDTA (0.2% Fe), FeEDTA (0.2% Fe), FeEDDS (0.4% Fe), and FeMGDA (0.4% Fe). For the combinations, these 4 solutions were mixed together in a 1:1 ratio. The plots (0.25 m^2) were sprayed 3 times at weekly intervals at a rate of 0.1 L/m^2. The plots contained a mixture of dandelion and hard fescue turfgrass.

perennial ryegrass [7] = assay: Example 21 Fe chelates with Killex, perennial ryegrass; type: in vivo; conditions: A29 = 29 days after treatment
Procedure: as §1, §2, §3, §6

white clover [8] = assay: Example 17 iron chelates with Killex, white clover; type: in vivo
Procedure: as §1, §2, §3, §5

dandelions [9] = assay: Example 7 potassium nonanoate with FeHEDTA, greenhouse dandelions; type: in vivo, Taraxacum officinale
Procedure: (§7) The following non-limiting examples serve to further describe the invention. Unless otherwise specified, all of the iron solutions were made using the same molar concentration of iron ion as chelating agent. All of the outside tests were done on areas of mixed grass and dandelions that were at least 2 months old. For the greenhouse tests, dandelions were grown in a commercial greenhouse mix, using supplemental lighting and heating. Each plant was grown in a 2¼ inch pot to a minimum diameter of 20 cm. All of the solutions were sprayed onto the plants at a rate of 100 ml/m^2. The ferrous sulfate formulations that were used in examples 1, 2, 8 and 9 contained 1% iron (180 mM), 18 mM EDTA, 1% citric acid and 0.5% urea. In all of the examples, the amount of iron is identified in brackets as the percent iron on a weight basis.
(§8) All plant damage was assessed using a qualitative rating scale from 0 to 9.
This test compared the damaged caused by combinations of fatty acid and FeHEDTA. FeHEDTA was used at a concentration to 35.8 mM. The treatment with 0.1% Fe contained twice the molar amount of chelating agent as iron. The treatment with 0.2% iron contained the same molar amount of chelating agent as iron Potassium nonanoate (KC9) was used at 0.84%. The plants were re-sprayed 8 days after the first spray.

dandelions [10] = assay: Example 1 field test of iron chelates, dandelion damage; type: in vivo, Taraxacum officinale; conditions: sprayed once at 100 ml/m^2, 5 days after spraying
Procedure: as §7, §8
(§9) All of the iron chelates were sprayed once at 0.2% Fe^+3 (35.8 mM), at a volume of 100 ml/m^2 onto 0.5 m^2 areas of mixed grass and dandelions. The spraying of the test was followed by 2 days of rain-free weather. Observations were made 5 days after spraying.

grass = assay: Example 1 field test of iron chelates, grass damage; type: in vivo; conditions: field, sprayed once at 100 ml/m^2, 5 days after spraying
Procedure: as §7, §8, §9

[11] = day 10 (re-sprayed after 7 days)
[12] = day 6, sprayed 3 times at weekly intervals
[13] = A4 = 4 days after application, 0=no effect, 100=plant death
[14] = A14 = 14 days after application

## O=C([O-])CN(CCN(CC(=O)[O-])CC(=O)O)CC(=O)[O-].[Al+3] [Al EDTA (0.4% Al)]
Dandelions [1]; day 7
  Dead Dandelion (#/20): 0 #/20
Dandelions [1]; [11]
  Dead Dandelion (#/20): 0 #/20

## O=C([O-])CN(CCN(CC(=O)O)CC(=O)O)CC(=O)[O-].[Cu+2] [Cu EDTA (0.4% Cu)]
Dandelions [1]; day 7
  Dead Dandelion (#/20): 0 #/20
Dandelions [1]; [11]
  Dead Dandelion (#/20): 4 #/20

## O=C([O-])CN(CCO)CCN(CC(=O)[O-])CC(=O)[O-].[Cu+2] [CuHEDTA 0.4% Cu]
Perennial ryegrass [2]; A4
  Phytotoxicity (%) on perennial ryegrass: 3%
Perennial ryegrass [2]; A7
  Phytotoxicity (%) on perennial ryegrass: 3%
White clover [3]; A4
  Phytotoxicity (%) against white clover: 32%
White clover [3]; A7
  Phytotoxicity (%) against white clover: 62%

## [Cl][Fe]([Cl])[Cl] [FeCl3 (0.4% Fe), ferric chloride]
Dandelions [1]; day 7
  Dead Dandelion (#/20): 0 #/20
Dandelions [1]; [11]
  Dead Dandelion (#/20): 0 #/20

## CC(C(=O)[O-])N(CC(=O)[O-])CC(=O)[O-].[Fe+3] (stereo not shown) [FeMGDA]
Perennial ryegrass [4]; A4
  Phytotoxicity (%) against perennial ryegrass: 0%
Perennial ryegrass [4]; A7
  Phytotoxicity (%) against perennial ryegrass: 0%
Perennial ryegrass [4]; A14
  Phytotoxicity (%) against perennial ryegrass: 0%
Dandelion [5]
  Phytotoxicity (%) against dandelion: 12%
Dandelion [6]; day 0
  Area Covered by Dandelion (%): 30%
  Dandelion Count (#/0.25 m^2): 72 #/0.25 m^2
Dandelion [6]; day 6
  Dandelion Count (#/0.25 m^2): 71 #/0.25 m^2
  Surviving Dandelions (%): 99%
Dandelion [6]; [12]
  Area Covered by Dandelion (%): 17%
Dandelion [6]; day 11
  Dandelion Necrosis (%): 85%
Dandelion [6]; day 13
  Dandelion Count (#/0.25 m^2): 43 #/0.25 m^2
  Surviving Dandelions (%): 60%
Dandelion [6]; day 15
  Area Covered by Dandelion (%): 12%
Dandelion [6]; day 18
  Dandelion Necrosis (%): 99%
Dandelion [6]; day 21
  Area Covered by Dandelion (%): 2%
  Dandelion Count (#/0.25 m^2): 19 #/0.25 m^2
  Surviving Dandelions (%): 26%
Dandelion [6]; day 33
  Dandelion Necrosis (%): 80%
Perennial ryegrass [7]
  Phytotoxicity (%) on perennial ryegrass: 0%
White clover [8]; [13]
  Phytotoxicity (%) against white clover: 4%
White clover [8]; A7 = 7 days after application
  Phytotoxicity (%) against white clover: 5%
White clover [8]; [14]
  Phytotoxicity (%) against white clover: 2%

## CCCCCCCCC(=O)[O-].[K+] [KC9, Potassium nonanoate]
Dandelions [9]; 8 + 5 days after spraying
  Dead Plants (#/10): 0 #/10
Dandelions [9]; 8 + 5 days after spraying (re-sprayed after 8 days)
  Plant Damage (0 to 9): 0.6 0 to 9
Dandelions [9]; 7 days after spraying
  Plant Damage (0 to 9): 0.0 0 to 9

## O=C([O-])CN(CCO)CCN(CC(=O)[O-])CC(=O)[O-].[Mn+2] [MnHEDTA 0.4% Mn]
Perennial ryegrass [2]; A4
  Phytotoxicity (%) on perennial ryegrass: 1%
Perennial ryegrass [2]; A7
  Phytotoxicity (%) on perennial ryegrass: 1%
White clover [3]; A4
  Phytotoxicity (%) against white clover: 9%
White clover [3]; A7
  Phytotoxicity (%) against white clover: 12%

## O=C([O-])CN(CCN(CC(=O)O)CC(=O)O)CC(=O)[O-].[Zn+2] [Zn EDTA (0.4% Zn)]
Dandelions [1]; day 7
  Dead Dandelion (#/20): 0 #/20
Dandelions [1]; [11]
  Dead Dandelion (#/20): 0 #/20

## O=C([O-])CN(CCN(CCO)CC(=O)O)CC(=O)[O-].[Zn+2] [ZnHEDTA 0.4% Zn]
Perennial ryegrass [2]; A4
  Phytotoxicity (%) on perennial ryegrass: 1%
Perennial ryegrass [2]; A7
  Phytotoxicity (%) on perennial ryegrass: 0%
White clover [3]; A4
  Phytotoxicity (%) against white clover: 4%
White clover [3]; A7
  Phytotoxicity (%) against white clover: 3%

## FeEDTA
Perennial ryegrass [4]; A4
  Phytotoxicity (%) against perennial ryegrass: 4%
Perennial ryegrass [4]; A7
  Phytotoxicity (%) against perennial ryegrass: 2%
Perennial ryegrass [4]; A14
  Phytotoxicity (%) against perennial ryegrass: 0%
Dandelion [6]; day 0
  Area Covered by Dandelion (%): 30%
  Dandelion Count (#/0.25 m^2): 56 #/0.25 m^2
Dandelion [6]; day 6
  Dandelion Count (#/0.25 m^2): 33 #/0.25 m^2
  Surviving Dandelions (%): 59%
Dandelion [6]; [12]
  Area Covered by Dandelion (%): 10%
Dandelion [6]; day 11
  Dandelion Necrosis (%): 90%
Dandelion [6]; day 13
  Dandelion Count (#/0.25 m^2): 20 #/0.25 m^2
  Surviving Dandelions (%): 36%
Dandelion [6]; day 15
  Area Covered by Dandelion (%): 7%
Dandelion [6]; day 18
  Dandelion Necrosis (%): 98%
Dandelion [6]; day 21
  Area Covered by Dandelion (%): 1%
  Dandelion Count (#/0.25 m^2): 19 #/0.25 m^2
  Surviving Dandelions (%): 34%
Dandelion [6]; day 33
  Dandelion Necrosis (%): 90%
Dandelions [10]
  Dandelion Damage (0 to 9): 8.3 0 to 9
grass
  Grass Damage (0 to 9): 1
White clover [8]; [13]
  Phytotoxicity (%) against white clover: 15%
White clover [8]; A7 = 7 days after application
  Phytotoxicity (%) against white clover: 15%
White clover [8]; [14]
  Phytotoxicity (%) against white clover: 6%
Dandelions [1]; Example 16, text
  herbicidal comparison of metal EDTA chelates, in words: better herbicide than Al EDTA, Cu EDTA and ZnEDTA
Dandelions [1]; day 7
  Dead Dandelion (#/20): 10 #/20
Dandelions [1]; [11]
  Dead Dandelion (#/20): 17 #/20
